Assay results taken from PMC9870775, “Potent Dual Polymerase/Exonuclease Inhibitory Activities of Antioxidant Aminothiadiazoles Against the COVID-19 Omicron Virus: A Promising In Silico/In Vitro Repositioning Research Study” (Molecular Biotechnology, 2023).
Values joined by “and” are separate entries in the source; they are usually repeats but may differ in a detail not shown here. Equal values may be shown once. Read-outs that look alike come from different tables or passages of the source.

Tested on: SARS-CoV-2 (Omicron variant, B.1.1.529.1/BA.1 sublineage)
Experiment: microbe, parasite or virus in culture
Type: cell-based
Conditions: for EC50 / EC90: Severe acute respiratory syndrome coronavirus 2, Vero C1008, 48 h; for EC90: read-out: 90% Reduction in Infectious Virus (EC90)
[1] = read-out: 50% Reduction in Infectious Virus (EC50)
[2] = read-out: 50% Reduction in Viral RNA Copy (EC50)
[3] = after starting administration and treatment

Row | SMILES | 100% CPE Inhibitory Concentration (CPEIC100) | EC50 [1] [nM] | EC50 [2] [nM] | EC90 [nM] | Time to maximal effectiveness against the Omicron-variant particles [3] [h] | Time to maximal effectiveness against the Omicron-variant particles [h]
1 | Nc1nnc(-c2cnc3cc(Cl)ccc3c2O)s1 [ChloViD2022, 3-(5-amino-1,3,4-thiadiazol-2-yl)-7-chloroquinolin-4-ol] | 1.09 µM and 1.09 ± 0.04 µM | 410 ± 20 | 440 ± 20 | 1530 ± 50 | 4 to 10 | 
2 | Nc1nnc([C@H](O)[C@@H](O)c2nnc(N)s2)s1 [Taroxaz-26, (1R,2R)-1,2-bis(5-amino-1,3,4-thiadiazol-2-yl)ethane-1,2-diol] | 1.83 µM and 1.83 ± 0.07 µM | 730 ± 30 | 770 ± 40 | 2340 ± 80 | 4 to 10 | 
3 | CC(C)C(=O)OC[C@H]1O[C@@H](n2ccc(NO)nc2=O)[C@H](O)[C@@H]1O [Molnupiravir, molnupiravir, reference compound] | 6.25 µM and 6.25 ± 0.31 µM |  |  | 9160 ± 370 |  | 
4 | Nc1nnc(CC(O)(Cc2nnc(N)s2)c2nnc(N)s2)s1 [CoViTris2022, 1,2,3-tris(5-amino-1,3,4-thiadiazol-2-yl)propan-2-ol] | 1.60 ± 0.06 µM | 690 ± 30 | 700 ± 40 | 2010 ± 70 |  | 4 to 10
